Source: the supplement of paper PMC10307832

Tests used:
Test in all cases: relative viability (nuclei count vs DMSO), 5 days (fraction); higher = more cells survive
Linsitinib + Foretinib = compound: C[C@]1(O)C[C@@H](c2nc(-c3ccc4ccc(-c5ccccc5)nc4c3)c3c(N)nccn32)C1 [Linsitinib] + COc1cc2c(Oc3ccc(NC(=O)C4(C(=O)Nc5ccc(F)cc5)CC4)cc3F)ccnc2cc1OCCCN1CCOCC1 [Foretinib] (partner 0.25 µM)
How it was run: (§1)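 The day after seeding in 1536-well plates, lung cancer cell lines were treated by pin tool with a single drug, or with a fixed anchor-drug dose together with five library-drug doses (not always all listed) in √10 steps. After 5 days, a combined fix-and-stain solution (final 0.05% Triton X-100, 1% formaldehyde, 1 ug/ml Hoechst) was added. Nuclei counted on 4× images gave relative viability as treated counts over vehicle counts, reported as the median of duplicate plates.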

Ispinesib + Alpelisib = compound: Cc1ccc(C(=O)N(CCCN)[C@@H](c2nc3cc(Cl)ccc3c(=O)n2Cc2ccccc2)C(C)C)cc1 [Ispinesib] + Cc1nc(NC(=O)N2CCC[C@H]2C(N)=O)sc1-c1ccnc(C(C)(C)C(F)(F)F)c1 [Alpelisib] (partner 2 µM)
How it was run: as §1

Ispinesib + Palbociclib = compound: Cc1ccc(C(=O)N(CCCN)[C@@H](c2nc3cc(Cl)ccc3c(=O)n2Cc2ccccc2)C(C)C)cc1 [Ispinesib] + CC(=O)c1c(C)c2cnc(Nc3ccc(N4CCNCC4)cn3)nc2n(C2CCCC2)c1=O [Palbociclib] (partner 0.5 µM)
How it was run: as §1

Ispinesib + Olaparib = compound: Cc1ccc(C(=O)N(CCCN)[C@@H](c2nc3cc(Cl)ccc3c(=O)n2Cc2ccccc2)C(C)C)cc1 [Ispinesib] + O=C(c1cc(Cc2n[nH]c(=O)c3ccccc23)ccc1F)N1CCN(C(=O)C2CC2)CC1 [Olaparib] (partner 8 µM)
How it was run: as §1

Cell Line | relative viability (Linsitinib + Foretinib; first compound 0.01 µM) | relative viability (Linsitinib + Foretinib; first compound 0.03162 µM) | relative viability (Linsitinib + Foretinib; first compound 0.1 µM) | relative viability (Linsitinib + Foretinib; first compound 0.3162 µM) | relative viability (Linsitinib + Foretinib; first compound 1 µM) | relative viability (Ispinesib + Alpelisib; first compound 0.001 µM) | relative viability (Ispinesib + Alpelisib; first compound 0.003162 µM) | relative viability (Ispinesib + Alpelisib; first compound 0.01 µM) | relative viability (Ispinesib + Alpelisib; first compound 0.03162 µM) | relative viability (Ispinesib + Alpelisib; first compound 0.1 µM) | relative viability (Ispinesib + Palbociclib; first compound 0.001 µM) | relative viability (Ispinesib + Palbociclib; first compound 0.003162 µM) | relative viability (Ispinesib + Palbociclib; first compound 0.01 µM) | relative viability (Ispinesib + Palbociclib; first compound 0.03162 µM) | relative viability (Ispinesib + Palbociclib; first compound 0.1 µM) | relative viability (Ispinesib + Olaparib; first compound 0.001 µM) | relative viability (Ispinesib + Olaparib; first compound 0.003162 µM) | relative viability (Ispinesib + Olaparib; first compound 0.01 µM) | relative viability (Ispinesib + Olaparib; first compound 0.03162 µM) | relative viability (Ispinesib + Olaparib; first compound 0.1 µM)
NCI-H441 | 0.928 | 1.18 | 0.834 | 0.835 | 0.492 | 0.934 | 0.848 | 0.947 | 0.238 | 0.215 | 0.237 | 0.25 | 0.208 | 0.174 | 0.136 | 0.529 | 0.516 | 0.631 | 0.237 | 0.247
NCI-H520 | 0.704 | 0.529 | 0.988 | – | 0.952 | 1.04 | 0.98 | 0.767 | 0.276 | 0.243 | 0.186 | 0.223 | 0.221 | 0.21 | 0.167 | 0.364 | 0.328 | 0.388 | 0.188 | 0.278
CAL-12T | 1.08 | 1.13 | 1.18 | 0.752 | 1.1 | 1.05 | 1.29 | 1.38 | 0.624 | 0.142 | 0.452 | 0.409 | 0.29 | 0.177 | 0.195 | 0.754 | 0.791 | 0.896 | 0.768 | 0.217
HCC-827 | 1.07 | 1.1 | 1.02 | – | 0.966 | 0.91 | 1 | 0.981 | 0.922 | 0.814 | 0.496 | 0.49 | 0.58 | 0.543 | 0.477 | 0.652 | 0.672 | 0.67 | 0.686 | 0.601
LC-2-ad | 0.983 | 0.979 | 0.858 | 0.738 | 0.671 | 0.932 | 0.94 | 1.06 | 0.697 | 0.268 | 0.541 | 0.54 | 0.566 | 0.482 | 0.272 | 0.728 | 0.728 | 0.711 | 0.816 | 0.293
NCI-H2170 | 0.994 | 1.05 | 0.974 | 0.773 | 0.963 | 0.892 | 0.765 | 0.947 | 0.603 | 0.484 | 0.402 | 0.36 | 0.431 | 0.282 | 0.257 | 0.593 | 0.679 | 0.651 | 0.481 | 0.444
SW 1573 | 0.959 | 0.912 | 0.764 | 0.744 | 0.628 | 1 | 0.816 | 1.07 | 0.893 | 0.255 | 0.385 | 0.404 | 0.32 | 0.18 | 0.218 | 0.541 | 0.421 | 0.447 | 0.142 | 0.185
SK-MES-1 | 0.865 | 1.08 | 0.999 | 0.778 | 0.81 | 0.905 | 1.42 | 1.07 | 0.681 | 0.286 | 0.277 | 0.345 | 0.319 | 0.154 | 0.224 | 0.762 | 0.788 | 0.648 | 0.201 | 0.228
SW 900 | 0.894 | 1.07 | 0.881 | 0.857 | 0.503 | – | – | – | – | – | 0.566 | 0.638 | 0.609 | 0.624 | 0.321 | 0.858 | 0.889 | 0.914 | 0.827 | 0.418
NCI-H1793 | 0.629 | 0.765 | 0.643 | 0.602 | 0.681 | 0.677 | 0.713 | 1.17 | 0.783 | 0.328 | 0.358 | 0.314 | 0.31 | 0.312 | 0.219 | 1.04 | 0.833 | 1.19 | 0.752 | 0.371
NCI-H1299 | 1.07 | 1.11 | 1.13 | 1.12 | 1.11 | 1.11 | 1.09 | 1.15 | 1.17 | 0.449 | – | – | – | – | – | 1.02 | 0.993 | 1.07 | 0.986 | 0.478
LCLC-97TM1 | 0.971 | 0.95 | 0.879 | 0.832 | 0.823 | 0.282 | 0.23 | 0.324 | 0.211 | 0.159 | 0.238 | 0.343 | 0.279 | 0.181 | 0.119 | 0.396 | 0.544 | 0.406 | 0.318 | 0.216
NCI-H1915 | 1.13 | 1.08 | 1.08 | 0.986 | 0.923 | 1.09 | 1.16 | 1.03 | 0.958 | 0.979 | 0.528 | 0.694 | 0.542 | 0.491 | 0.41 | 0.262 | 0.266 | 0.298 | 0.258 | 0.209
NCI-H661 | 0.974 | 1.07 | 1.01 | 0.932 | 1 | 0.593 | 0.972 | 0.745 | 0.369 | 0.508 | 0.398 | 0.4 | 0.406 | 0.282 | 0.248 | 0.737 | 0.848 | 0.805 | 0.505 | 0.255
NCI-H2405 | 1.01 | 1.04 | 1.06 | 0.965 | 0.813 | 0.922 | 0.647 | 0.763 | 0.717 | 0.364 | 0.546 | 0.555 | 0.512 | 0.479 | 0.397 | 0.992 | 0.942 | 0.801 | 0.853 | 0.556
NCI-H2347 | 0.838 | 0.874 | 0.741 | 0.892 | 0.967 | 1.04 | 1.13 | 1.18 | 0.94 | 0.655 | 0.406 | 0.388 | 0.423 | 0.395 | 0.419 | 0.504 | 0.692 | 0.592 | 0.559 | 0.525
